These results are taken from ChEMBL document CHEMBL1201862, “PubChem BioAssay data set” (2004).

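Assay format: 96-well plates, 48-hour exposure. At the GI50, growth is halved.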 Active and inactive are the calls of the source. Cut-off read from the data, not from the text of the source: active = GI50 up to about 1.1 µM and inactive = higher.

Some test systems named below: OVCAR-3; SK-OV-3; CAKI-1; OVCAR-4; U-251; NCI-H460; SF-295; COLO 205; SK-MEL-28; HOP-92; NCI/ADR-RES; UO-31; 786-0; ACHN; OVCAR-5; HCT-15; KM12; A498; A549; K562.
Assay in all cases: NCI tumour cell line growth inhibition, 48 h

`CCOC(=O)c1c(C)n(-c2ccc(C)cc2)c2c1cc(O)c1[nH]c3c(c12)CCCC3`: the GI50 is 12.9 µM (inactive) with OVCAR-3; 87.3 µM (inactive) in the assay on SK-OV-3; 27.9 µM (inactive) in the assay with CAKI-1; 13.7 µM (inactive) in the assay on OVCAR-4; 14.8 µM (inactive) in the assay on U-251; 24.8 µM (inactive) with NCI-H460. Moreover, the GI50 is 20.6 µM (inactive) with SF-295; 25.6 µM (inactive) with COLO 205; 16.3 µM (inactive) with SK-MEL-28; 2.92 µM (inactive) with HOP-92; 39.8 µM (inactive) with NCI/ADR-RES; 13.9 µM (inactive) in the assay with UO-31. Further, the GI50 in the assay with 786-0 was 16.9 µM (inactive); in the assay on ACHN, 22.1 µM (inactive); in the assay on OVCAR-5, 23.5 µM (inactive); with HCT-15 it was 24.3 µM; with KM12, 16.7 µM (inactive); in the assay on A498, 13.9 µM (inactive). Besides, the GI50 in the assay with A549 is 18.8 µM (inactive); in the assay with K562, 17.7 µM (inactive).

Turning to `O=C(O)C1CCCN1Cc1ccc2c(c1)OCO2` (stereo not given), the GI50 in the assay with OVCAR-3, in the assay with SK-OV-3, in the assay on CAKI-1, in the assay with OVCAR-4, with U-251 and in the assay on NCI-H460 was > 100 µM (inactive) throughout. Further, the GI50 in the assay with SF-295, in the assay with COLO 205, in the assay with SK-MEL-28, in the assay with HOP-92, in the assay with NCI/ADR-RES and in the assay on UO-31 was > 100 µM (inactive) each time. For the same compound, the GI50 in the assay with 786-0 is > 100 µM (inactive); with ACHN, > 100 µM (inactive); with OVCAR-5, > 100 µM (inactive); in the assay with HCT-15 it was > 100 µM; in the assay on KM12 it was > 100 µM (inactive); with A498, > 100 µM (inactive). Moreover, the GI50 in the assay with A549 and with K562 was > 100 µM (inactive) in each case.

As to `Oc1cccc2ccc(Br)nc12`, the GI50 in the assay with OVCAR-3, with SK-OV-3, with CAKI-1, with OVCAR-4, in the assay with U-251 and with NCI-H460 was > 100 µM (inactive) in each case. Moreover, the GI50 in the assay with SF-295, in the assay with COLO 205, with SK-MEL-28, in the assay with HOP-92, in the assay on NCI/ADR-RES and in the assay with UO-31 was > 100 µM (inactive) in each case. Besides, the GI50 with 786-0 is > 100 µM (inactive); in the assay with ACHN it was > 100 µM (inactive); with OVCAR-5, > 100 µM (inactive); in the assay with HCT-15 it was > 100 µM; in the assay on KM12, > 100 µM (inactive); with A498 it was > 100 µM (inactive). For the same compound, the GI50 in the assay on A549 and with K562 was > 100 µM (inactive) throughout.

As for `CCN(CC)c1ncnc2c1ncn2CCNC(CO)(CO)CO`, the GI50 in the assay with OVCAR-3, in the assay on SK-OV-3, in the assay with CAKI-1, in the assay with OVCAR-4, with U-251 and with NCI-H460 was > 100 µM (inactive) in each case. Besides, the GI50 in the assay on SF-295, in the assay on COLO 205, in the assay on SK-MEL-28, in the assay with HOP-92, in the assay on NCI/ADR-RES and with UO-31 was > 100 µM (inactive) in each case. Moreover, the GI50 in the assay on 786-0 was > 100 µM (inactive); in the assay with ACHN, > 100 µM (inactive); in the assay on OVCAR-5, > 100 µM (inactive); in the assay on HCT-15, > 100 µM; with KM12 it was > 100 µM (inactive); with A498 it was > 100 µM (inactive). For the same compound, the GI50 in the assay on A549 and in the assay on K562 was > 100 µM (inactive) throughout.

Regarding `CNc1ccc(Cl)cc1C(=O)N1CCC[C@H]1CO`, the GI50 with OVCAR-3, in the assay on SK-OV-3, in the assay with CAKI-1, in the assay on OVCAR-4, in the assay on U-251 and in the assay on NCI-H460 was > 100 µM (inactive) throughout. Further, the GI50 with SF-295 is > 100 µM (inactive); with COLO 205, > 100 µM (inactive); in the assay on SK-MEL-28, > 100 µM (inactive); in the assay with HOP-92 it was > 58.6 µM (inactive); in the assay with NCI/ADR-RES, > 100 µM (inactive); in the assay on UO-31, > 100 µM (inactive). The GI50 is > 100 µM (inactive) with 786-0; > 100 µM (inactive) in the assay on ACHN; > 100 µM (inactive) with OVCAR-5; > 100 µM with HCT-15; > 100 µM (inactive) in the assay on KM12; > 100 µM (inactive) in the assay on A498. In addition, the GI50 in the assay on A549 and in the assay on K562 was > 100 µM (inactive) throughout.

For `COc1ccc(-c2nc(SCC(=O)N/N=C/c3ccc([N+](=O)[O-])cc3)[nH]c2-c2ccc(OC)cc2)cc1`, the GI50 was 10.4 µM (inactive) in the assay with OVCAR-3; 20.2 µM (inactive) in the assay with SK-OV-3; 28.1 µM (inactive) in the assay with CAKI-1; 39.4 µM (inactive) in the assay with OVCAR-4; 11.7 µM (inactive) with U-251; 10.3 µM (inactive) in the assay with NCI-H460. Further, the GI50 is 8.05 µM (inactive) in the assay with SF-295; 2.23 µM (inactive) in the assay with COLO 205; 21.7 µM (inactive) with SK-MEL-28; 12.6 µM (inactive) with HOP-92; 19.1 µM (inactive) with NCI/ADR-RES; 18.8 µM (inactive) with UO-31. In addition, the GI50 with 786-0 was 20 µM (inactive); in the assay on ACHN, 20.1 µM (inactive); in the assay with OVCAR-5, 16.2 µM (inactive); in the assay with HCT-15, 8.55 µM; with KM12, 4.86 µM (inactive); in the assay with A498, 14.3 µM (inactive). In addition, the values for the GI50 in the assay on A549 and with K562 were 6.95 µM (inactive) and 7.45 µM (inactive), respectively.

For the compound `CS(=O)(=O)c1nc(Cl)c(Cl)c(C#N)c1Cl`, the GI50 is 2.08 µM (inactive) in the assay on OVCAR-3; 6.75 µM (inactive) in the assay on SK-OV-3; 0.984 µM (active) in the assay on CAKI-1; 1.96 µM (inactive) in the assay on OVCAR-4; 4.9 µM (inactive) in the assay on U-251; 11.5 µM (inactive) in the assay on NCI-H460. The GI50 was 16.7 µM (inactive) with SF-295; 1.45 µM (inactive) with COLO 205; 2.12 µM (inactive) with SK-MEL-28; 1.99 µM (inactive) in the assay on HOP-92; 2.25 µM (inactive) with NCI/ADR-RES; 1.91 µM (inactive) with UO-31. The GI50 was 1.94 µM (inactive) with 786-0; 2.6 µM (inactive) in the assay with ACHN; 4.39 µM (inactive) in the assay with OVCAR-5; 1.61 µM in the assay with HCT-15; 6.97 µM (inactive) in the assay with KM12; 17.5 µM (inactive) in the assay with A498. In addition, the GI50 was 18.7 µM (inactive) with A549 and 0.859 µM (active) in the assay on K562.
